Data reported in PMC3025325, “Identification of a κ-opioid agonist as a potent and selective lead for drug development against human African trypanosomiasis” (Biochemical Pharmacology, 2010).
Structures can show the parent of a compound that is named as a salt. Where two headings read alike, the source gives them in different places.

Assays:
MRC5 cells = assay: Resazurin cell viability counter-screen, EC50 determinations against mammalian cells; format: cell-based, human
[1] = tested on: bloodstream forms of Trypanosoma brucei; assay: Resazurin cell viability assay, EC50 determinations against T. brucei; format: cell-based, T. b. brucei (strain 427)
[2] = Trypanosoma brucei, 72 h, read-out: EC50 vs. T. brucei
[3] = Homo sapiens, MRC5, 72 h, read-out: EC50 vs. MRC5
[4] = Trypanosoma brucei, 72 h, LOPAC hits, 3 days incubation, mean of 3 determinations weighted to standard error, read-out: EC50 vs. T. brucei
[5] = Homo sapiens, MRC5, 72 h, 3 days incubation, mean of 4 determinations weighted to standard error, read-out: EC50 vs. MRC5
[6] = Trypanosoma brucei, 72 h, LOPAC hits (library screening), 3 days incubation, mean of 3 determinations weighted to standard error, read-out: EC50 vs. T. brucei
[7] = Trypanosoma brucei, 72 h, read-out: EC50 of standard drugs against T. brucei
[8] = read-out: EC50 of standard drugs against T. brucei

| Compound | Selectivity (MRC5 cells) | EC50 [1, 2] | also measured |
| --- | --- | --- | --- |
| Nc1ncnc2c1nc(Sc1ccc(Cl)cc1)n2C1OC2COP(=O)(O)O[C@H]2C1O (stereo in doubt) [8-(4-Chlorophenylthio)-cAMP sodium] | 44 | – | – |
| O=C(/C=C/c1ccc(O)c(O)c1)OCCc1ccccc1 [Caffeic acid phenethyl ester] | – | 1640 ± 130 nM | – |
| O=C1Cc2c([nH]c3ccc([N+](=O)[O-])cc23)-c2ccccc2N1 [Alsterpaullone] | 1.3 | 400 ± 40 nM | EC50 (MRC5 cells; [3]): 510 ± 170 nM |
| Cc1nc(-c2ccc(-c3ccc(C(=O)N4CCc5cc6c(cc54)C4(CCN(C)CC4)CO6)cc3)c(C)c2)no1 [SB 224289 hydrochloride, 1′-Methyl-5-([2′-methyl-4′-(5-methyl-1,2,4-oxadiazol-3-yl)biphenyl-4-yl]carbonyl)-2,3,6,7-tetrahydro-spiro(furo[2,3-f]indole-3,4′-piperidine)] | – | – | EC50 [1, 4]: 1350 ± 280 nM |
| CC1=C(/C=C/C(C)=C/C=C/C(C)=C/C(=O)Nc2ccc(O)cc2)C(C)(C)CCC1 [Retinoic acid p-hydroxyanilide] | – | – | EC50 ([1]; read-out: EC50 vs. T. brucei): 2230 ± 270 nM |
| NC[C@@H]1O[C@H](C23CC4CC(CC(C4)C2)C3)Cc2c1ccc(O)c2O (single isomer, unassigned; (-)) [A-77636 hydrochloride] | – | – | EC50 ([1]; read-out: EC50 vs. T. brucei): 2210 ± 150 nM |
| CCCN1CCc2cccc3c2[C@H]1Cc1ccc(O)c(O)c1-3 [R(−)-Propylnorapomorphine hydrochloride] | – | – | EC50 ([1]; read-out: EC50 vs. T. brucei): 1520 ± 210 nM |
| CCCN(CCC)CCc1ccc(O)c(O)c1 [Dipropyldopamine hydrobromide] | – | 1290 ± 60 nM | – |
| CC[C@H]1CN2CCc3cc(OC)c(OC)cc3[C@@H]2C[C@@H]1C[C@H]1NCCc2cc(OC)c(OC)cc21 [Emetine dihydrochloride hydrate] | – | – | EC50 (MRC5 cells; [5]): 30 ± 3.1 nM; EC50 [1, 6]: 7.9 ± 0.53 nM |
| Nc1ncnc2c1nc(Sc1ccc(Cl)cc1)n2[C@H]1OC2COP(=O)(O)O[C@H]2[C@@H]1O (stereo partly drawn) [8-(4-Chlorophenylthio)-cAMP sodium] | – | – | EC50 ([1]; read-out: EC50 vs. T. brucei): 400 ± 54 nM |
| CC1CS(=O)(=O)CCN1/N=C/c1ccc([N+](=O)[O-])o1 (stereo not drawn) [nifurtimox] | – | – | EC50 [1, 7]: 1800 nM; EC50 [1, 8]: 1810 ± 130 nM |
| Nc1nc(N)nc(Nc2ccc([As]3SCC(CO)S3)cc2)n1 (stereo not drawn) [melarsoprol] | – | – | EC50 [1, 7]: 7.52 ± 0.28 nM; EC50 [1, 8]: 8 nM |
| CC(=O)[C@]1(O)Cc2c(O)c3c(c(O)c2[C@@H](O[C@H]2C[C@H](N)[C@H](O)[C@H](C)O2)C1)C(=O)c1ccccc1C3=O [Idarubicin] | 3.9 | 20 ± 1.5 nM | EC50 (MRC5 cells; [3]): 78 ± 29 nM |
| Clc1ccc(C(c2ccc(Cl)cc2)n2cc[n+](CC(OCc3ccc(Cl)cc3Cl)c3ccc(Cl)cc3Cl)c2)cc1 (stereo not drawn) [Calmidazolium chloride] | 13 | 510 ± 66 nM | EC50 (MRC5 cells; [3]): 6600 ± 750 nM |
| N=C(N)SCCc1cccc(CCSC(=N)N)c1 [1,3-PBIT dihydrobromide, Phenylene-1,3-bis(ethane-2-isothiourea) dihydrobromide] | – | – | EC50 ([1]; read-out: EC50 vs. T. brucei): 1580 ± 80 nM |
| CC(=O)O[C@H]1C(=O)[C@@]2(C)[C@H]([C@H](OC(=O)c3ccccc3)[C@]3(O)C[C@H](OC(=O)[C@H](O)[C@@H](NC(=O)c4ccccc4)c4ccccc4)C(C)=C1C3(C)C)[C@]1(OC(C)=O)CO[C@@H]1C[C@@H]2O [Taxol] | 2 | 3.3 ± 0.071 nM | EC50 (MRC5 cells; [3]): 6.6 ± 9.8 nM |
| CC[C@]1(O)C[C@H]2CN(CCc3c([nH]c4ccccc34)[C@@](C(=O)OC)(c3cc4c(cc3OC)N(C=O)[C@H]3[C@@](O)(C(=O)OC)[C@H](OC(C)=O)[C@]5(CC)C=CCN6CC[C@]43[C@@H]65)C2)C1 [Vincristine sulfate] | 0.02 | – | EC50 (MRC5 cells; [3]): 0.6 ± 1 nM; EC50 [1, 6]: 30 ± 1 nM |
| O=c1[nH]c2ccccc2n1C1CCN(CCCC(c2ccc(F)cc2)c2ccc(F)cc2)CC1 [Pimozide] | 41 | 340 ± 19 nM | – |
| O=[N+]([O-])c1ccc(CSc2ncnc3c2ncn3[C@@H]2O[C@H](CO)[C@@H](O)[C@H]2O)cc1 [S-(4-Nitrobenzyl)-6-thioinosine] | – | 3780 ± 550 nM | – |
| NC(=O)c1cc(N2CC2)c([N+](=O)[O-])cc1[N+](=O)[O-] [CB 1954, 5-(1-Aziridinyl)-2,4-dinitrobenzamide] | – | 1080 ± 90 nM | – |
| CC(C)[C@H](CO)Nc1nc(Nc2cccc(Cl)c2)c2ncn(C(C)C)c2n1 [Purvalanol A] | 12 | 820 ± 55 nM | – |
| Dequalinium analogue, C-14 linker | 14 | – | EC50 ([1]; read-out: EC50 vs. T. brucei): 70 ± 4.6 nM |
| Cc1c2ccncc2c(C)c2c1[nH]c1ccccc12 [Ellipticine] | 3.7 | – | EC50 (MRC5 cells; [5]): 1700 ± 620 nM; EC50 [1, 6]: 460 ± 45 nM |
| CNc1ccc2oc(C[C@H]3O[C@@]4(CC[C@H]3C)O[C@H]([C@H](C)C(=O)c3ccc[nH]3)[C@H](C)C[C@H]4C)nc2c1C(=O)O [Calcimycin] | 4.2 | 180 ± 13 nM | EC50 (MRC5 cells; [3]): 750 ± 140 nM |
| CCCn1c(=O)c2[nH]c(C3CCCC3)nc2n(CCC)c1=O [8-Cyclopentyl-1,3-dipropylxanthine] | 31 | 530 ± 53 nM | – |
| C[n+]1cc2c3c(ccc2c2ccc4cc5c(cc4c21)OCO5)OCO3 [Sanguinarine chloride] | 5.8 | 240 ± 17 nM | EC50 (MRC5 cells; [3]): 1400 ± 350 nM |

| Compound | Selectivity (MRC5 cells) | EC50 [1, 2] | also measured |
| --- | --- | --- | --- |
| CN(N=O)c1cc(O)ccc1O [Dephostatin] | – | > 10000 nM | – |
| Br.CN1Cc2sccc2C(c2ccc(O)c(O)c2)C1 (stereo not drawn) [SKF 89145 hydrobromide, 4-(3,4-Dihydroxyphenyl)-6-methyl-4,5,6,7-tetrahydrothieno[2,3-c]pyridine HBr] | 4.7 | 610 ± 44 nM | EC50 (MRC5 cells; [3]): 2900 ± 200 nM |
| CC[C@]1(O)C[C@@H]2CN(CCc3c([nH]c4ccccc34)[C@@](C(=O)OC)(c3cc4c(cc3OC)N(C)[C@H]3[C@@](O)(C(=O)OC)[C@H](OC(C)=O)[C@]5(CC)C=CCN6CC[C@]43[C@@H]65)C2)C1.O=S(=O)(O)O [Vinblastine sulfate salt] | 8.3 | – | EC50 (MRC5 cells; read-out: EC50 vs. MRC5): 780 ± 910 nM; EC50 ([1]; read-out: EC50 vs. T. brucei): 94 ± 6 nM |
| Oligomycin A | 120 | – | Selectivity / specificity for T. brucei over human fibroblasts (MRC5 cells): greater than 100 fold; EC50 ([1]; read-out: EC50 vs. T. brucei): 150 ± 3.1 nM |
| COc1cccc2c1C(=O)c1c(O)c3c(c(O)c1C2=O)C[C@@](O)(C(=O)CO)C[C@@H]3O[C@H]1C[C@H](N)[C@H](O)[C@H](C)O1 [Doxorubicin] | – | – | EC50 (MRC5 cells; Homo sapiens, MRC5, 72 h, read-out: EC50 against MRC5 (control drug)): 85.9 ± 38.2 nM |
| Nc1nc2ccc(Cl)cc2c2nc(-c3ccco3)nn12 [CGS-15943, 9-Chloro-2-(2-furyl)[1,2,4]triazolo[1,5-c]quinazolin-5-amine] | – | 1970 ± 210 nM | – |
| CCN(CC)CCCC(C)Nc1c2ccc(Cl)cc2nc2ccc(OC)cc12 (stereo not drawn) [Quinacrine dihydrochloride] | 5.0 | 380 ± 13 nM | EC50 (MRC5 cells; [3]): 1900 ± 440 nM |
| O=C1Nc2ccccc2/C1=C1/Nc2ccccc2/C1=N\O [Indirubin-3′-oxime] | – | – | EC50 ([1]; read-out: EC50 vs. T. brucei): 1280 ± 90 nM |
| COc1cc2c(CCNC(C)=O)c[nH]c2cc1O [6-Hydroxymelatonin] | – | – | EC50 ([1]; read-out: EC50 vs. T. brucei): 3310 ± 230 nM |
| O=C1Cc2c([nH]c3ccc(Br)cc23)-c2ccccc2N1 [Kenpaullone] | – | 1860 ± 270 nM | – |
| COc1ccc2c(c[n+](C)c3c4cc5c(cc4ccc23)OCO5)c1OC [Chelerythrine chloride] | 42 | – | EC50 (MRC5 cells; [5]): 2500 ± 480 nM; EC50 [1, 6]: 59 ± 5.7 nM |
| Buprenorphine | – | – | Activity against T. brucei (in words) [1]: weak activity |
| CC[C@H](C)C(=O)O[C@H]1CCC=C2C=C[C@H](C)[C@H](CC[C@@H]3C[C@@H](O)CC(=O)O3)[C@H]21 [Mevastatin] | 2.2 | – | EC50 (MRC5 cells; [3]): 2000 ± 360 nM; EC50 [1, 6]: 940 ± 50 nM |
| CCn1cnc2c(Nc3cccc(Cl)c3)nc(N[C@@H]3CCCC[C@@H]3N)nc21.Cl (relative stereo) [CGP-74514A, N^2-(cis-2-Aminocyclohexyl)-N^6-(3-chlorophenyl)-9-ethyl-9H-purine-2,6-diamine HCl] | 7.1 | 210 ± 8.3 nM | EC50 (MRC5 cells; [3]): 1500 ± 620 nM |
| CCCCCCCCCCCCC/C=C/[C@@H](O)[C@@H](N)CO [Sphingosine] | 5.7 | 820 ± 78 nM | EC50 (MRC5 cells; [3]): 4600 ± 2500 nM |
| [N-]=[N+]=Nc1ccc(C(=O)CSC[C@H](NC(=O)CC[C@H](N)C(=O)O)C(=O)NCC(=O)O)cc1 [S-(p-Azidophenacyl)glutathione] | – | – | EC50 ([1]; read-out: EC50 vs. T. brucei): > 10000 nM |
| C=CCc1ccccc1OCC(O)CNC1(C)CCC(C(C)(C)NC(=O)CBr)CC1 (stereo not drawn) [Bromoacetyl alprenolol menthane] | – | 1260 ± 140 nM | – |
| Cc1cc(N)c2ccccc2[n+]1CCCCCCCCCC[n+]1c(C)cc(N)c2ccccc21 [Dequalinium dichloride] | 140 | 43 ± 8.8 nM | Selectivity / specificity for T. brucei over human fibroblasts (MRC5 cells): greater than 100 fold; EC50 (MRC5 cells; [3]): 6100 ± 1500 nM |
| c1ccc2c(c1)[I+]c1ccccc1-2 [Diphenyleneiodonium chloride] | 5.7 | 120 ± 7.6 nM | EC50 (MRC5 cells; [3]): 700 ± 870 nM |
| O=C(O)c1cc[c]([Hg][Cl])cc1 [4-Chloromercuribenzoic acid] | 27 | – | EC50 ([1]; read-out: EC50 vs. T. brucei): 690 ± 85 nM |
| CC[C@@]1(O)C(=O)OCc2c1cc1n(c2=O)Cc2cc3ccccc3nc2-1 [(S)-(+)-Camptothecin] | 1.5 | – | EC50 (MRC5 cells; read-out: EC50 vs. MRC5): 800 ± 99 nM; EC50 ([1]; read-out: EC50 vs. T. brucei): 530 ± 13 nM |
| O=C1c2c(O)ccc(O)c2C(=O)c2c(NCCNCCO)ccc(NCCNCCO)c21 [Mitoxantrone] | 46 | 2.4 ± 0.2 nM | EC50 (MRC5 cells; [3]): 110 ± 37 nM |
| CC(C)[C@@]1(NC(=O)[C@@H]2C[C@@H]3c4cccc5[nH]cc(c45)C[C@H]3N(C)C2)O[C@@]2(O)[C@@H]3CCCN3C(=O)[C@H](Cc3ccccc3)N2C1=O.CS(=O)(=O)O [Dihydroergocristine methanesulfonate] | 23 | – | EC50 ([1]; read-out: EC50 vs. T. brucei): 890 ± 57 nM |
| C=C1C(=O)O[C@H]2[C@H]1CC/C(C)=C/CC[C@@]1(C)O[C@@H]21 [Parthenolide] | – | – | EC50 [1, 4]: 1060 ± 80 nM |
| Nc1ccn([C@H]2CC[C@@H](CO)O2)c(=O)n1 [2′,3′-Dideoxycytidine] | – | > 10000 nM | – |
| O=C1CC[C@@]2(O)[C@H]3Cc4ccc(O)c5c4[C@@]2(CCN3CC2CC2)[C@H]1O5 [Naltrexone] | – | – | EC50 ([1]; Trypanosoma brucei, read-out: EC50 of opioid receptor ligands against T. brucei): > 100000 nM |
